In patent US20260262643A1, “HERBICIDAL BENZOXAZINES” (FMC CORPORATION, priority 2022, published 2026):

What was measured:
green foxtail [1] = experiment: Test C postemergence; type: in vivo, Setaria viridis; settings: 10 days, 0 to 100 scale (0 no effect, 100 complete control)
How it was run: (§1)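 Seeds in loam–sand blend received preemergence directed soil spray of test chemicals in non-phytotoxic solvent with surfactant; postemergence treatment was applied at one- to two-leaf stage (2–10 cm). After 10 days in greenhouse, injury rated visually versus untreated controls, 0 (no effect) to 100 (complete control).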

galium = experiment: Test C postemergence; type: in vivo, Galium aparine; settings: 10 days, 0 to 100 scale (0 no effect, 100 complete control)
How it was run: as §1

blackgrass [2] = experiment: Test C postemergence; type: in vivo, Alopecurus myosuroides; settings: 10 days, 0 to 100 scale (0 no effect, 100 complete control)
How it was run: as §1

soybean [3] = experiment: Test C preemergence; type: in vivo, Glycine max
How it was run: as §1

oat, wild [4] = experiment: Test C postemergence; type: in vivo, Avena fatua; settings: 10 days, 0 to 100 scale (0 no effect, 100 complete control)
How it was run: as §1

horseweed = experiment: Test C postemergence; type: in vivo, Erigeron canadensis; settings: 10 days, 0 to 100 scale (0 no effect, 100 complete control)
How it was run: as §1

corn [5] = experiment: Test C preemergence; type: in vivo, Zea mays
How it was run: as §1

soybean [6] = experiment: Test C postemergence; type: in vivo, Glycine max; settings: Postemergence, 125 g ai/ha; 0 to 100 scale (0 no effect, 100 complete control), 10 days
How it was run: as §1

ducksalad = experiment: Test D flooded paddy test; type: in vivo, Heteranthera limosa; settings: 250 g ai/ha, applied to paddy water, visual rating after 13 to 14 days, scale 0 to 100 (0 no effect, 100 complete control)
How it was run: (§2)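 Seedlings reached the 2-leaf stage, then pots were flooded to 3 cm over the soil surface. Compound was applied into the water, depth was maintained, and plants stayed in the greenhouse 13 to 14 days before visual scoring (0–100) relative to controls.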

barnyardgrass [7] = experiment: Test C postemergence; type: in vivo, Echinochloa crusgalli; settings: 10 days, 0 to 100 scale (0 no effect, 100 complete control)
How it was run: as §1

green foxtail [8] = experiment: Test C preemergence; type: in vivo, Setaria viridis
How it was run: as §1

blackgrass [9] = experiment: Test C preemergence; type: in vivo, Alopecurus myosuroides
How it was run: as §1

ragweed [10] = experiment: Test C postemergence; type: in vivo, Ambrosia artemisiifolia; settings: Postemergence, 125 g ai/ha; 0 to 100 scale (0 no effect, 100 complete control), 10 days
How it was run: as §1

rice = experiment: Test D flooded paddy test; type: in vivo, Oryza sativa; settings: 250 g ai/ha, applied to paddy water, visual rating after 13 to 14 days, scale 0 to 100 (0 no effect, 100 complete control)
How it was run: as §2

pigweed, palmer [11] = experiment: Test C postemergence; type: in vivo, Amaranthus palmeri; settings: 10 days, 0 to 100 scale (0 no effect, 100 complete control)
How it was run: as §1

wheat [12] = experiment: Test C preemergence; type: in vivo, Triticum aestivum
How it was run: as §1

barnyardgrass [13] = experiment: Test D flooded paddy test; type: in vivo, Echinochloa crus-galli; settings: 250 g ai/ha, applied to paddy water, visual rating after 13 to 14 days, scale 0 to 100 (0 no effect, 100 complete control)
How it was run: as §2

kochia [14] = experiment: Test C preemergence; type: in vivo, Bassia scoparia
How it was run: as §1

ryegrass, Italian [15] = experiment: Test C postemergence; type: in vivo, Lolium multiflorum; settings: Postemergence, 125 g ai/ha; 0 to 100 scale (0 no effect, 100 complete control), 10 days
How it was run: as §1

sedge, umbrella = experiment: Test D flooded paddy test; type: in vivo, Cyperus difformis; settings: 250 g ai/ha, applied to paddy water, visual rating after 13 to 14 days, scale 0 to 100 (0 no effect, 100 complete control)
How it was run: as §2

pigweed, palmer [16] = experiment: Test C preemergence; type: in vivo, Amaranthus palmeri
How it was run: as §1

oat, wild [17] = experiment: Test C preemergence; type: in vivo, Avena fatua
How it was run: as §1

ryegrass, Italian [18] = experiment: Test C preemergence; type: in vivo, Lolium multiflorum
How it was run: as §1

corn [19] = experiment: Test C postemergence; type: in vivo, Zea mays; settings: 10 days, 0 to 100 scale (0 no effect, 100 complete control)
How it was run: as §1

wheat [20] = experiment: Test C postemergence; type: in vivo, Triticum aestivum; settings: Postemergence, 125 g ai/ha; 0 to 100 scale (0 no effect, 100 complete control), 10 days
How it was run: as §1

barnyardgrass [21] = experiment: Test C preemergence; type: in vivo, Echinochloa crusgalli
How it was run: as §1

ragweed [22] = experiment: Test C preemergence; type: in vivo, Ambrosia artemisiifolia
How it was run: as §1

kochia [23] = experiment: Test C postemergence; type: in vivo, Bassia scoparia; settings: 10 days, 0 to 100 scale (0 no effect, 100 complete control)
How it was run: as §1

[24] = 500 g ai/ha, preemergence, 0 to 100 scale (0 no effect, 100 complete control)
[25] = Preemergence, 125 g ai/ha, 0 to 100 scale, 0 no effect, 100 complete control

CCOC[C@H]1CN(C(=O)c2cc(-n3cnc(C(C)C)n3)cc3c2OCCO3)c2cccc(Cl)c2O1 [Compound 396]
Plant response rating, Foxtail, Green (green foxtail [1]; 500 g ai/ha, postemergence): 80 | Plant response rating, Foxtail, Green (green foxtail [1]; Postemergence, 125 g ai/ha): 60 | Plant response rating, Galium (galium; 500 g ai/ha, postemergence): 100 | Plant response rating, Galium (galium; Postemergence, 125 g ai/ha): 100 | Plant response rating, Blackgrass (blackgrass [2]; 500 g ai/ha, postemergence): 70 | Plant response rating, Blackgrass (blackgrass [2]; Postemergence, 125 g ai/ha): 30 | Soybean plant response rating (soybean [3]; [24]): 100 | Plant response rating, Soybean (soybean [3]; [25]): 60 | Plant response rating, Oat, Wild (oat, wild [4]; 500 g ai/ha, postemergence): 40 | Plant response rating, Oat, Wild (oat, wild [4]; Postemergence, 125 g ai/ha): 20 | Plant response rating, Horseweed (horseweed; 500 g ai/ha, postemergence): 60 | Plant response rating, Horseweed (horseweed; Postemergence, 125 g ai/ha): 0 | Corn plant response rating (corn [5]; [24]): 40 | Plant response rating, Corn (corn [5]; [25]): 10 | Plant response rating, Soybean (soybean [6]): 100 | Plant response rating, Ducksalad (Flood) (ducksalad): 0 | Plant response rating, Barnyardgrass (barnyardgrass [7]; 500 g ai/ha, postemergence): 50 | Plant response rating, Barnyardgrass (barnyardgrass [7]; Postemergence, 125 g ai/ha): 30 | Foxtail, Green plant response rating (green foxtail [8]; [24]): 100 | Plant response rating, Foxtail, Green (green foxtail [8]; [25]): 90 | Blackgrass plant response rating (blackgrass [9]; [24]): 40 | Plant response rating, Blackgrass (blackgrass [9]; [25]): 20 | Plant response rating, Ragweed (ragweed [10]): 70 | Plant response rating, Rice (Flood) (rice): 0 | Plant response rating, Pigweed, Palmer (pigweed, palmer [11]; 500 g ai/ha, postemergence): 90 | Plant response rating, Pigweed, Palmer (pigweed, palmer [11]; Postemergence, 125 g ai/ha): 90 | Wheat plant response rating (wheat [12]; [24]): 30 | Plant response rating, Wheat (wheat [12]; [25]): 0 | Plant response rating, Barnyardgrass (Flood) (barnyardgrass [13]): 0 | Kochia plant response rating (kochia [14]; [24]): 90 | Plant response rating, Kochia (kochia [14]; [25]): 70 | Plant response rating, Ryegrass, Italian (ryegrass, Italian [15]): 0 | Plant response rating, Sedge, Umbrella (Flood) (sedge, umbrella): 0 | Pigweed, Palmer plant response rating (pigweed, palmer [16]; [24]): 100 | Plant response rating, Pigweed, Palmer (pigweed, palmer [16]; [25]): 100 | Oat, Wild plant response rating (oat, wild [17]; [24]): 90 | Plant response rating, Oat, Wild (oat, wild [17]; [25]): 30 | Ryegrass, Italian plant response rating (ryegrass, Italian [18]; [24]): 90 | Plant response rating, Ryegrass, Italian (ryegrass, Italian [18]; [25]): 60 | Plant response rating, Corn (corn [19]; 500 g ai/ha, postemergence): 60 | Plant response rating, Corn (corn [19]; Postemergence, 125 g ai/ha): 50 | Plant response rating, Wheat (wheat [20]): 20 | Barnyardgrass plant response rating (barnyardgrass [21]; [24]): 90 | Plant response rating, Barnyardgrass (barnyardgrass [21]; [25]): 50 | Ragweed plant response rating (ragweed [22]; [24]): 90 | Plant response rating, Ragweed (ragweed [22]; [25]): 80 | Plant response rating, Kochia (kochia [23]; 500 g ai/ha, postemergence): 100 | Plant response rating, Kochia (kochia [23]; Postemergence, 125 g ai/ha): 80
